What all share (format): functional
The test system of test [1] is Aspergillus fumigatus. Briefly: Antifungal activity against Aspergillus fumigatus 7544 incubated for 48 hrs by microbroth dilution method. On the technique in general: Broth dilution looks for growth in wells or tubes with falling amounts of substance.
Test [2] has as its system Cryptococcus neoformans. Kind of test: Antifungal activity against Cryptococcus neoformans H99 incubated for 72 hrs by microbroth dilution method.
Test [3] concerns Candida albicans. Kind of test: Antifungal activity against Candida albicans SC5314 incubated for 24 hrs by microbroth dilution method.
Test [4] relates to Cryptococcus neoformans. Kind of test: Antifungal activity against Cryptococcus neoformans 32605.
In test [5] the test system is Trichophyton rubrum. Briefly: Antifungal activity against Trichophyton rubrum cmccftla.
The subject of test [6] is Nannizzia gypsea. Kind of test: Antifungal activity against Microsporum gypseum.
Test [7] has as its system Candida parapsilosis. Kind of test: Antifungal activity against Candida parapsilosis 22019. As to conditions: Lodderomyces parapsilosis.
Test [8] has as its system Candida albicans. Briefly: Antifungal activity against Candida albicans Y0109.
For test [9], the system named is Nakaseomyces glabratus. Kind of test: Antifungal activity against Candida glabrata 537.

≈ marks a conversion by molar mass, not a printed value.

In general, MIC refers to the smallest concentration in the dilution series that meets the test's criterion for growth inhibition. A high value points to a less susceptible organism. Regarding `CC(=O)c1ccc(-n2cc([C@H](C)[C@](O)(Cn3cncn3)c3ccc(F)cc3F)nn2)cc1`, the figures for the MIC in test [1], in test [2] and in test [3] were more than 64 µg/mL, 0.25 µg/mL (≈ 0.57 µM) and 0.125 µg/mL (≈ 0.285 µM), respectively.
On the same counts, the results for `C[C@@H](c1cn(-c2ccc(OCC(F)(F)F)cc2)nn1)[C@](O)(Cn1cncn1)c1ccc(F)cc1F` are 2 µg/mL (≈ 4.05 µM), 0.125 µg/mL (≈ 0.253 µM) and 0.0313 µg/mL (≈ 0.0633 µM).
On the same counts, the results for `C[C@@H](c1cn(-c2ccc(OC(F)F)cc2)nn1)[C@](O)(Cn1cncn1)c1ccc(F)cc1F` are 8 µg/mL (≈ 17.3 µM), 0.125 µg/mL (≈ 0.27 µM) and 0.0313 µg/mL (≈ 0.0677 µM).
Turning to `C[C@@H](c1cn(-c2ccc([N+](=O)[O-])cc2)nn1)[C@](O)(Cn1cncn1)c1ccc(F)cc1F`, the MIC was more than 64 µg/mL in test [1] and 0.25 µg/mL (≈ 0.566 µM) in test [2].
On to `C[C@@H](c1cn(-c2ccc(OCc3ccc(F)cc3)cc2)nn1)[C@](O)(Cn1cncn1)c1ccc(F)cc1F`, for which the MIC in test [1] is more than 64 µg/mL; in test [2] it was 0.0625 µg/mL (≈ 0.12 µM); in [3] it was 0.125 µg/mL (≈ 0.24 µM).
The like results for `CCCCCCOc1ccc(-n2cc([C@H](C)[C@](O)(Cn3cncn3)c3ccc(F)cc3F)nn2)cc1` were, in that order, 8 µg/mL (≈ 16.1 µM), 0.0625 µg/mL (≈ 0.126 µM) and 0.125 µg/mL (≈ 0.252 µM).
Take `C[C@@H](c1cn(-c2ccc(OCC(F)(F)C(F)(F)F)cc2)nn1)[C@](O)(Cn1cncn1)c1ccc(F)cc1F`: the MIC came out at 8 µg/mL (≈ 14.7 µM) in test [1] and 0.0625 µg/mL (≈ 0.115 µM) in test [2].
Turning to `C[C@@H](c1cn(-c2c(F)cccc2F)nn1)[C@](O)(Cn1cncn1)c1ccc(F)cc1F`, the MIC turned out to be 2 µg/mL (≈ 4.63 µM) in test [1], 0.125 µg/mL (≈ 0.289 µM) in test [2] and 0.125 µg/mL (≈ 0.289 µM) in test [3].
For the molecule `C[C@@H](c1cn(-c2ccc(OCC(F)(F)C(F)F)cc2)nn1)[C@](O)(Cn1cncn1)c1ccc(F)cc1F`, the MIC was 2 µg/mL (≈ 3.8 µM) in test [1], 0.0625 µg/mL (≈ 0.119 µM) in [2] and 0.0156 µg/mL (≈ 0.0296 µM) in test [3].
As for `C[C@@H](c1cn(-c2ccc(OC(F)(F)F)cc2)nn1)[C@](O)(Cn1cncn1)c1ccc(F)cc1F`, the MIC was found to be 0.0625 µg/mL (≈ 0.13 µM) in test [4]; 0.15 µg/mL (≈ 0.312 µM) in test [5]; 4 µg/mL (≈ 8.33 µM) in test [1]; 0.0625 µg/mL (≈ 0.13 µM) in test [2]; 0.0313 µg/mL (≈ 0.0652 µM) in test [3]; 2 µg/mL (≈ 4.16 µM) in [6]. The figures for the minimal inhibitory concentration (MIC) in [7], in test [8] and in test [9] were 0.125 µg/mL (≈ 0.26 µM), 0.0313 µg/mL (≈ 0.0652 µM) and 0.125 µg/mL (≈ 0.26 µM), respectively.
As to `C[C@@H](c1cn(-c2ccc(C(F)(F)F)cc2)nn1)[C@](O)(Cn1cncn1)c1ccc(F)cc1F`, the MIC in test [1] stood at 16 µg/mL (≈ 34.5 µM); in test [2], 0.0625 µg/mL (≈ 0.135 µM); in test [3], 0.0625 µg/mL (≈ 0.135 µM).
For `C[C@@H](c1cn(-c2ccc(OCc3ccc(C#N)cc3)cc2)nn1)[C@](O)(Cn1cncn1)c1ccc(F)cc1F`, the values for the MIC in test [1] and in test [3] were more than 64 µg/mL and 0.125 µg/mL (≈ 0.237 µM), respectively.
As for `C[C@@H](c1cn(-c2ccc(Cl)c(F)c2)nn1)[C@](O)(Cn1cncn1)c1ccc(F)cc1F`, the results for the MIC in test [1], in test [2] and in test [3] were 16 µg/mL (≈ 35.6 µM), 0.0625 µg/mL (≈ 0.139 µM) and 0.0313 µg/mL (≈ 0.0697 µM), respectively.
On the same counts, the results for `C[C@@H](c1cn(-c2ccc(C#N)cc2)nn1)[C@](O)(Cn1cncn1)c1ccc(F)cc1F` are more than 64 µg/mL, 0.25 µg/mL (≈ 0.593 µM) and 0.125 µg/mL (≈ 0.297 µM).
The like results for `C[C@@H](c1cn(-c2cncnc2)nn1)[C@](O)(Cn1cncn1)c1ccc(F)cc1F` were, in that order, 64 µg/mL (≈ 161 µM), 4 µg/mL (≈ 10 µM) and 0.5 µg/mL (≈ 1.26 µM).
The like results for `C[C@@H](c1cn(-c2cc(F)cc(F)c2)nn1)[C@](O)(Cn1cncn1)c1ccc(F)cc1F` were, in that order, 8 µg/mL (≈ 18.5 µM), 0.0625 µg/mL (≈ 0.145 µM) and 0.0625 µg/mL (≈ 0.145 µM).
Consider `C[C@@H](c1cn(-c2cccc(F)c2)nn1)[C@](O)(Cn1cncn1)c1ccc(F)cc1F`, for which the MIC is 16 µg/mL (≈ 38.6 µM) in test [1], 0.125 µg/mL (≈ 0.302 µM) in [2] and 0.0625 µg/mL (≈ 0.151 µM) in test [3].
The like results for `C[C@@H](c1cn(-c2ccc(Cl)cc2)nn1)[C@](O)(Cn1cncn1)c1cc(F)ccc1F` were, in that order, 32 µg/mL (≈ 74.3 µM), 0.125 µg/mL (≈ 0.29 µM) and 0.125 µg/mL (≈ 0.29 µM).
The like results for `C[C@@H](c1cn(-c2ccc(S(C)(=O)=O)cc2)nn1)[C@](O)(Cn1cncn1)c1ccc(F)cc1F` were, in that order, more than 64 µg/mL, 4 µg/mL (≈ 8.43 µM) and 0.5 µg/mL (≈ 1.05 µM).
The like results for `C[C@@H](c1cn(-c2ccc(Cl)cc2)nn1)[C@](O)(Cn1cncn1)c1ccc(F)cc1F` were, in that order, 4 µg/mL (≈ 9.28 µM), 0.0156 µg/mL (≈ 0.0362 µM) and 0.0625 µg/mL (≈ 0.145 µM).
